# PubChem BioAssay (NCI)
#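 Cultured in 96-well plates, cells were exposed to test compound for 48 hours across five concentrations. Abbreviation: GI50, concentration required for 50% inhibition of growth. TGI: total growth inhibition.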
# Experiments:
# Assay in all cases: NCI tumour cell line growth inhibition, 48 h
# [1] = tested on: MCF7 breast
# [2] = tested on: OVCAR-8 ovarian
# [3] = tested on: HCT-15 colon
# [4] = tested on: SK-OV-3 ovarian
# [5] = tested on: M14 melanoma
# [6] = tested on: KM12 colon
# [7] = tested on: A498 renal
# [8] = tested on: U251 CNS
# [9] = tested on: COLO 205 colon
# [10] = tested on: MALME-3M melanoma
# [11] = tested on: HT29 colon
# [12] = tested on: MDA-MB-435
# [13] = tested on: CCRF-CEM leukemia
# [14] = tested on: PC-3 prostate
# [15] = tested on: K-562 leukemia
# [16] = tested on: MDA-MB-468 breast
# [17] = tested on: UACC-257 melanoma
# [18] = tested on: NCI-H226 lung
# [19] = tested on: SNB-75 CNS
# [20] = tested on: NCI-H460 lung
# [21] = tested on: SW-620 colon
# [22] = tested on: RXF 393 renal
# [23] = tested on: SK-MEL-2 melanoma
# [24] = tested on: SF-539 CNS
# [25] = tested on: NCI-H23 lung
# [26] = tested on: OVCAR-5 ovarian
# [27] = tested on: T-47D breast
# [28] = tested on: SNB-19 CNS
# [29] = tested on: RPMI-8226 leukemia
# [30] = tested on: HCC-2998 colon
smiles,measurement,setting,value
O=C(NO)c1ccc(Cn2ccc3c(NCc4ccccc4)ncnc32)cc1,TGI,[1],22.8 µM
same,GI50,[2],3.1 µM
same,TGI,[2],14.4 µM
same,GI50,[3],3.09 µM
same,TGI,[3],15.2 µM
same,GI50,[4],3.27 µM
same,TGI,[4],15.6 µM
same,GI50,[5],4.12 µM
same,TGI,[5],20.2 µM
same,GI50,[6],3.19 µM
same,TGI,[6],12.7 µM
same,GI50,[7],2280 nM
same,TGI,[7],10.2 µM
same,GI50,[8],3.21 µM
same,TGI,[8],15.2 µM
same,GI50,[9],2430 nM
same,TGI,[9],6.24 µM
same,GI50,[10],1990 nM
same,TGI,[10],9.52 µM
same,GI50,[11],2480 nM
same,TGI,[11],6.93 µM
same,GI50,[12],562 nM
same,TGI,[12],2260 nM
same,GI50,[13],3.72 µM
same,TGI,[13],58.7 µM
same,GI50,[14],4.35 µM
same,TGI,[14],97.9 µM
same,GI50,[15],2030 nM
same,TGI,[15],> 103 µM
same,GI50,[16],2120 nM
same,TGI,[16],6.05 µM
same,GI50,[17],2390 nM
same,TGI,[17],15.1 µM
same,GI50,[18],4.17 µM
same,TGI,[18],25.5 µM
same,GI50,[19],1250 nM
same,TGI,[19],5.36 µM
same,GI50,[20],3.12 µM
same,TGI,[20],19.1 µM
same,GI50,[21],2220 nM
same,TGI,[21],6.49 µM
same,GI50,[22],1940 nM
same,TGI,[22],5.63 µM
same,GI50,[23],4.58 µM
same,TGI,[23],18.7 µM
same,GI50,[24],2640 nM
same,TGI,[24],9.8 µM
same,GI50,[25],4.8 µM
same,TGI,[25],17.2 µM
same,GI50,[26],2570 nM
same,TGI,[26],10.1 µM
same,GI50,[27],3.13 µM
same,TGI,[27],21.8 µM
same,GI50,[28],5.81 µM
same,TGI,[28],20.6 µM
same,GI50,[29],2900 nM
same,TGI,[29],> 103 µM
same,GI50,[30],4.5 µM
same,TGI,[30],17.1 µM
